Laboratory results: patent US10350210B2, “EGFR and ALK dual inhibitor” (PRECEDO PHARMACEUTICALS CO., LTD, priority 2015, dated 2019)

What was measured:
NCI-H1975 = test: Growth of cancer cells (Cell Titer-Glo viability), NCI-H1975; type: cell-based; details: Homo sapiens; NCI-H1975 (EGFR L858R/T790M double mutant), 72 hrs
Procedure, shortened: (§1)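 Cells are counted as viable by CellTiter-Glo chemiluminescence. Murine BaF3 lines depend on a stably transfected TEL-fused kinase after IL-3 withdrawal, and the NSCLC lines express mutant EGFR.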

PC-9 = test: Growth of cancer cells (Cell Titer-Glo viability), PC-9; type: cell-based; details: Homo sapiens; PC-9 (EGFR delE746_A750 mutant), 72 hrs
Procedure, shortened: as §1

NCI-H460 = test: Growth of cancer cells (Cell Titer-Glo viability), NCI-H460; type: cell-based; details: Homo sapiens; NCI-H460 (wild-type EGFR), 72 hrs
Source text: (§2) By testing the effect of the novel kinase inhibitors on the proliferation of cancer cells, the selectivity of the compounds of the present disclosure in inhibiting the proliferation of cancer cells was further assessed. In this example, human non-small cell lung cancer cell NCI-H1975 (expressing EGFR L858R/T790M double mutant gene), human skin squamous carcinoma cell A431 (expressing wild-type EGFR gene), non-small cell lung cancer NCI-H3255 (expressing EGFR L858R mutant gene), non-small cell lung cancer cell NCI-H3122 (expressing ALK gene), human non-small cell lung cancer cell A549 (expressing wild-type EGFR gene), human non-small cell lung cancer cell NCI-H2122 (expressing wild-type EGFR gene), human non-small cell lung cancer cell NCI-H460 (expressing wild-type EGFR gene), human non-small cell lung cancer cell PC-9 (expressing EGFR delE746_A750 mutant gene), Chinese hamster ovary cell CHO (Cricetulus griseus, hamster, Chinese, ovary), Chinese hamster lung cell CHL, human non-small cell lung cancer cell HCC827 (expressing mutant EGFR del19 gene), human lung adenocarcinoma cell HCC4006 (expressing mutant EGFR del19 gene), human non-small cell lung cancer cell NCI-H2228 (expressing wild-type ALK gene), and mouse primary B cell BaF3 were used, and the above cells were all purchased from ATCC (US). In addition, mouse BaF3-TEL-ALK (stably expressing ALK kinase), mouse BaF3-ALK-F1174L (stably expressing mutant ALK F1174L kinase), mouse BaF3-NPM-ALK (stably expressing ALK kinase), mouse BaF3-TEL-EGFR (stably expressing EGFR kinase), mouse BaF3-TEL-EGFR-T790M (stably expressing EGFR T790M mutant kinase), mouse BaF3-FL-EGFR-Del19 (stably expressing EGFR delE746_A750 mutant kinase), mouse BaF3-TEL-EGFR-L858R (stably expressing EGFR L858R mutant kinase), mouse BaF3-FL-EGFR-T790M-L858R (stably expressing EGFR T790M/L858R mutant kinase), mouse BaF3-TEL-INSR (stably expressing INSR protein), mouse BaF3-TEL-IGF1R (stably expressing IGF1R Protein), mouse BaF3-EML4-ALK (stably expressing EML4-ALK Protein), mouse BaF3-TEL-JAK3 (stably expressing JAK3 kinase protein), mouse BaF3-TEL-CSF1R (stably expressing CSF1R protein), and mouse BaF3-TEL-ALK-F1196M (stably expressing ALK F1196M mutant kinase) were also used in this example. The above cell lines were all established by our laboratory via the following process: kinase proteins or protein domain sequences of human ALK, ALK F1174L, EGFR, EGFR T790M, EGFR delE746_A750, EGFR L858, EGFR T790M/L858R, INSR, IGF1R, EML4-ALK, JAK3, CSF1R, ALK F1196M were amplified respectively by PCR, and were respectively inserted into MSCV-Puro vector (Clontech) with N-terminal TEL fragments and/or NPM fragments and/or TPR fragments; the resultants were stably transfected into mouse BaF3 cells by the means of retrovirus, and the IL-3 growth factors were removed, and eventually the ALK, ALK F1174L, EGFR, EGFR T790M, EGFR delE746_A750, EGFR L858, EGFR T790M/L858R, INSR, IGF1R, EML4-ALK, JAK3, CSF1R, ALK F1196M-transferred protein dependent cell lines were obtained.
(§3) The number of viable cells was determined quantitatively by a microplate reader using Cell Titer-Glo® (Promega, US) chemiluminescence cell viability assay kit.

NCI-H2122 = test: Growth of cancer cells (Cell Titer-Glo viability), NCI-H2122; type: cell-based; details: Homo sapiens; NCI-H2122 (wild-type EGFR), 72 hrs
NCI-H3255 = test: Growth of cancer cells (Cell Titer-Glo viability), NCI-H3255; type: cell-based; details: Homo sapiens; NCI-H3255 (EGFR L858R mutant), 72 hrs
Source text: as §2, §3

HCC827 = test: Growth of cancer cells (Cell Titer-Glo viability), HCC827; type: cell-based; details: Homo sapiens; HCC827 (mutant EGFR del19), 72 hrs
Procedure, shortened: (§4)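 Luminescent ATP-based viability (CellTiter-Glo) measured viable cell number after compound exposure. Engineered lines were murine BaF3 made growth-factor independent by a TEL-kinase fusion and IL-3 removal. The human lung cancer lines harbor EGFR del19 (HCC827) or EGFR L858R (NCI-H3255).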

HCC4006 = test: Growth of cancer cells (Cell Titer-Glo viability), HCC4006; type: cell-based; details: Homo sapiens; HCC4006 (mutant EGFR del19), 72 hrs
Source text: as §2, §3

NCI-H3122 = test: Growth of cancer cells (Cell Titer-Glo viability), NCI-H3122; type: cell-based; details: Homo sapiens; NCI-H3122 (expressing ALK gene), 72 hrs; read-out: GI50
NCI-H2228 = test: Growth of cancer cells (Cell Titer-Glo viability), NCI-H2228; type: cell-based; details: Homo sapiens; NCI-H2228 (wild-type ALK), 72 hrs
BaF3-NPM-ALK = test: Cell growth (Cell Titer-Glo viability), BaF3-NPM-ALK; type: cell-based; details: Mus musculus; BaF3-NPM-ALK (stably expressing ALK kinase), 72 hrs
BaF3-TEL-EGFR = test: Cell growth (Cell Titer-Glo viability), BaF3-TEL-EGFR; type: cell-based; details: Mus musculus; BaF3-TEL-EGFR (stably expressing EGFR kinase), 72 hrs
Source text: as §2, §3

BaF3-TEL-EGFR-T790M = test: Cell growth (Cell Titer-Glo viability), BaF3-TEL-EGFR-T790M; type: cell-based; details: Mus musculus; BaF3-TEL-EGFR-T790M (EGFR T790M mutant kinase), 72 hrs
Procedure, shortened: as §4

[1] = system: EGFR protein (wild-type EGFR, A549); test: Effect on signaling pathway in cells, A549; type: cell-based, human; details: control at 1 μM, 4 h, compared with Compound 1 (little effect)
Source text: In four cell lines (all purchased from ATCC) including non-small cell lung cancer cell line A549 (expressing wild-type EGFR gene), non-small cell lung cancer cell line H1975 (expressing EGFR L858R/T790M double mutant gene), non-small cell lung cancer cell line H3255 (expressing EGFR L858R mutant gene) and non-small cell lung cancer cell line PC-9 (expressing EGFR delE746_A750 mutant gene), the effect of Compound 1 on EGFR or other protein kinases related to signaling pathways of EGFR such as Stat3, AKT, ErK, eIF4E, 4EBP1, P70S6K was assessed by assaying a number of cellular biochemical and functional endpoints. […] The effect of Compound 1 on phosphorylation of Stat3Y705, AKT T308, AKT 5473, Erk T202/204, EGFR Y1068, P70S6K Thr389, eIF4E Ser209, Erk T202/204, 4EBP1 (Thr37/46) in these cell lines was assayed (FIGS. 1a to 1d).

A431 = test: Growth of cancer cells (Cell Titer-Glo viability), A431; type: cell-based; details: Homo sapiens, A-431; A431 (wild-type EGFR), 72 hrs; read-out: GI50
CHO = test: Cell growth (Cell Titer-Glo viability), CHO; type: cell-based, Chinese hamster; details: Cricetulus griseus; CHO Chinese hamster ovary cell, 72 hrs; read-out: GI50
CHL = test: Cell growth (Cell Titer-Glo viability), CHL; type: cell-based, Chinese hamster; details: Cricetulus griseus; CHL Chinese hamster lung cell, 72 hrs; read-out: GI50
A549 = test: Growth of cancer cells (Cell Titer-Glo viability), A549; type: cell-based; details: Homo sapiens; A549 (wild-type EGFR), 72 hrs
BaF3 = test: Cell growth (Cell Titer-Glo viability), BaF3; type: cell-based; details: BaF3 mouse primary B cell, 72 hrs
BaF3-TEL-ALK = test: Cell growth (Cell Titer-Glo viability), BaF3-TEL-ALK; type: cell-based; details: Mus musculus; BaF3-TEL-ALK (stably expressing ALK kinase), 72 hrs
Procedure, shortened: as §4

BaF3-ALK-F1174L = test: Cell growth (Cell Titer-Glo viability), BaF3-ALK-F1174L; type: cell-based; details: Mus musculus; BaF3-ALK-F1174L (mutant ALK F1174L kinase), 72 hrs
Procedure, shortened: as §4

BaF3-FL-EGFR-T790M-L858R = test: Cell growth (Cell Titer-Glo viability), BaF3-FL-EGFR-T790M-L858R; type: cell-based; details: Mus musculus; BaF3-FL-EGFR-T790M-L858R (EGFR T790M/L858R mutant kinase), 72 hrs
Procedure: By testing the effect of the novel kinase inhibitors on the proliferation of cancer cells, the selectivity of the compounds of the present disclosure in inhibiting the proliferation of cancer cells was further assessed. […]
as §3

BaF3-TEL-INSR = test: Cell growth (Cell Titer-Glo viability), BaF3-TEL-INSR; type: cell-based; details: Mus musculus; BaF3-TEL-INSR (stably expressing INSR protein), 72 hrs
Source text: as §2, §3

BaF3-TEL-ALK-F1196M = test: Cell growth (Cell Titer-Glo viability), BaF3-TEL-ALK-F1196M; type: cell-based; details: Mus musculus; BaF3-TEL-ALK-F1196M (ALK F1196M mutant kinase), 72 hrs
Source text: By testing the effect of the novel kinase inhibitors on the proliferation of cancer cells, the selectivity of the compounds of the present disclosure in inhibiting the proliferation of cancer cells was further assessed. In this example, human non-small cell lung cancer cell NCI-H1975 (expressing EGFR L858R/T790M double mutant gene), human skin squamous carcinoma cell A431 (expressing wild-type EGFR gene), non-small cell lung cancer NCI-H3255 (expressing EGFR L858R mutant gene), non-small cell lung cancer cell NCI-H3122 (expressing ALK gene), human non-small cell lung cancer cell A549 (expressing wild-type EGFR gene), human non-small cell lung cancer cell NCI-H2122 (expressing wild-type EGFR gene), human non-small cell lung cancer cell NCI-H460 (expressing wild-type EGFR gene), human non-small cell lung cancer cell PC-9 (expressing EGFR delE746_A750 mutant gene), Chinese hamster ovary cell CHO (Cricetulus griseus, hamster, Chinese, ovary), Chinese hamster lung cell CHL, human non-small cell lung cancer cell HCC827 (expressing mutant EGFR del19 gene), human lung adenocarcinoma cell HCC4006 (expressing mutant EGFR del19 gene), human non-small cell lung cancer cell NCI-H2228 (expressing wild-type ALK gene), and mouse primary B cell BaF3 were used, and the above cells were all purchased from ATCC (US). […]
as §3

Row | SMILES | GI50 (NCI-H1975) [nM] | GI50 (PC-9) [nM] | GI50 (NCI-H2122) [nM] | GI50 (NCI-H3122) [nM] | GI50 (NCI-H2228) [nM] | GI50 (BaF3-NPM-ALK) [nM] | GI50 (BaF3) [nM] | GI50 (BaF3-TEL-ALK) [nM] | other results
1 | C=CC(=O)Nc1cccc(Oc2nc(Nc3ccc(N4CCN(C)CC4)cc3OC)ncc2Cl)c1 [WZ4002, reference compound] | 21 | 27 | 5700 | 3200 | 1100 | 1400 |  |  | GI50 (NCI-H460): 8100 nM; GI50 (NCI-H3255): 390 nM; GI50 (HCC827): 1.2 nM; GI50 (HCC4006): 7.2 nM; GI50 (BaF3-TEL-EGFR): 1600 nM; GI50 (BaF3-TEL-EGFR-T790M): 46 nM; effect on phosphorylation of EGFR protein and of STAT3, S6K, AKT, ERK, eIF4E [1]: behaved similarly
2 | C=CC(=O)Nc1cc(Nc2ncc(Cl)c(Nc3ccccc3S(=O)(=O)C(C)C)n2)c(OC)cc1N1CCN(C(C)C)CC1 [Compound 11, N-(5-(5-chloro-4-(2-(isopropylsulfonyl)phenylamino)pyrimidin-2-ylamino)-2-(4-isopropylpiperazin-1-yl)-4-methoxyphenyl)acrylamide] | 25 | 24 | 190 | < 0.3 | < 3 | < 0.3 | 450 | < 3 | GI50 (A431): 140 nM; GI50 (CHO): 1300 nM; GI50 (CHL): 1100 nM; GI50 (A549): 210 nM; GI50 (BaF3-ALK-F1174L): 530 nM; GI50 (BaF3-FL-EGFR-T790M-L858R): 2 nM
3 | C=CC(=O)Nc1cc(Nc2ncc(F)c(Nc3ccccc3S(=O)(=O)C(C)C)n2)c(OC)cc1N1CCN(CC)CC1 [Compound 82, N-(2-(4-ethylpiperazin-1-yl)-5-(5-fluoro-4-(2-(isopropylsulfonyl)phenylamino)pyrimidin-2-ylamino)-4-methoxyphenyl)acrylamide] | 48 | 14 |  | 2 |  | 1 | 3000 | 1 | GI50 (BaF3-TEL-INSR): 7 nM; GI50 (BaF3-TEL-ALK-F1196M): 6 nM
